Data taken from PubChem BioAssay (NCI).
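Exposure lasted 48 hours, with cells grown in 96-well plates and compounds tested at five concentrations. At the GI50, growth is halved. TGI denotes the concentration required for complete inhibition of growth.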

Columns and labels:
Test in all cases: NCI-60 cell line screen, 48 h
KM12 colon = system: KM12 colon
OVCAR-8 ovarian = system: OVCAR-8 ovarian
MOLT-4 leukemia = system: MOLT-4 leukemia
PC-3 prostate = system: PC-3 prostate
SK-OV-3 ovarian = system: SK-OV-3 ovarian
NCI-H23 lung = system: NCI-H23 lung
ACHN renal = system: ACHN renal
HL-60(TB) leukemia = system: HL-60(TB) leukemia
SW-620 colon = system: SW-620 colon
IGROV1 ovarian = system: IGROV1 ovarian

Row | Structure (SMILES) | GI50 (KM12 colon) | TGI (KM12 colon) | GI50 (OVCAR-8 ovarian) | TGI (OVCAR-8 ovarian) | GI50 (MOLT-4 leukemia) | TGI (MOLT-4 leukemia) | GI50 (PC-3 prostate) | TGI (PC-3 prostate) | GI50 (SK-OV-3 ovarian) | TGI (SK-OV-3 ovarian) | GI50 (NCI-H23 lung) | TGI (NCI-H23 lung) | GI50 (ACHN renal) | GI50 (HL-60(TB) leukemia) | GI50 (SW-620 colon) | TGI (SW-620 colon) | GI50 (IGROV1 ovarian) | TGI (IGROV1 ovarian) | TGI (ACHN renal) | TGI (HL-60(TB) leukemia)
1 | C#CC1(O)C(COP(=O)(O)OC2CC(n3cc(F)c(=O)[nH]c3=O)OC2CO)OC(n2ccc(N)nc2=O)C1O (stereo not drawn) | < 0.01 µM | > 29 µM | < 0.01 µM | 14.5 µM | < 0.01 µM | > 39 µM | < 0.032 µM | 29.7 µM | 0.0735 µM | > 100 µM | < 0.026 µM | > 38 µM | < 0.01 µM | < 0.0181 µM | < 0.01 µM | > 100 µM | < 0.0139 µM | > 35.9 µM |  | 
2 | O=C1CSC(/C(=C\c2ccc(Cl)cc2)c2nc3ccccc3[nH]2)=N1 |  | 28.5 µM |  | 32 µM |  | > 100 µM |  | 36.5 µM |  | 24.1 µM |  | 30.7 µM |  |  |  | 35.6 µM |  | 22.4 µM | 19 µM | > 68.8 µM
3 | COC(=O)c1sc(C(=O)OC)c2c1CSC2 |  | > 100 µM |  | > 100 µM |  | > 100 µM |  | > 100 µM |  | > 100 µM |  | > 100 µM |  |  |  | > 100 µM |  | > 100 µM | > 100 µM | > 100 µM
4 | N#Cc1c(-c2ccccc2)cc(-c2ccc(Nc3nc(Nc4ccc(Cl)cc4)nc(Nc4ccc(Cl)cc4)n3)cc2)nc1N | 2.91 µM | 11.4 µM | 3.94 µM | > 100 µM | 1.62 µM | 4.53 µM | 1.89 µM | 6.76 µM | 21.3 µM | 55 µM | 6.14 µM | 61.4 µM | 1.64 µM | 1.71 µM | 1.91 µM | 4.82 µM | 1.34 µM | 2.67 µM | 3.26 µM | 5.35 µM
5 | Cc1nc2ccc(Nc3nc(NCCN4CCOCC4)nc(Nc4ccc(F)cc4)n3)cc2n1Cc1ccccc1 | 3.82 µM | 19.9 µM | 3.28 µM | > 100 µM | 2.7 µM | 10.9 µM | 3.26 µM | 16.2 µM | 4.48 µM | 17.3 µM | 3.67 µM | 24.8 µM | 2.78 µM | 1.82 µM | 3.24 µM | 10.7 µM | 5.59 µM | 46 µM | 17.5 µM | 4.72 µM
6 | CC1=C[C@H]2c3c(c(O)c(O)c4oc5ccccc5c(=O)c34)[C@H](c3cc(O)c(O)c4oc5ccccc5c(=O)c34)[C@H]2C(C)(C)C1 | 1.07 µM | 9.53 µM | 0.93 µM | 46.9 µM | 0.802 µM | 24.1 µM | 1.1 µM | 16.5 µM | 2.5 µM | 14.2 µM | 0.518 µM | 3.22 µM | 0.863 µM | 3.22 µM | 0.802 µM | 10.7 µM | 1.05 µM | 8.09 µM | 9.22 µM | 10.8 µM
7 | O=C1C=C(Br)C(=O)C12CCc1ccccc12 (stereo not drawn) |  | 44.6 µM |  | 64.6 µM |  | 6.89 µM |  | 32.5 µM |  | 42.6 µM |  | 44.6 µM |  |  |  | 16.2 µM |  | 39.3 µM | 24.7 µM | 25.2 µM
8 | O=C(Nc1ccc(F)cc1)c1c(NC(=O)C(F)(F)F)sc2c1CCCCC2 | 1.96 µM | 9.23 µM | 2.8 µM | > 100 µM | 2.65 µM | 15.2 µM | 1.59 µM | 7.87 µM | 2.05 µM | 6.37 µM | 2 µM | 8.82 µM | 2.11 µM | 2.68 µM | 2.51 µM | 11.9 µM | 2.99 µM | 15.5 µM | 7.93 µM | 8.32 µM
9 | O=C(Nc1ccc(Cl)cc1)c1ccc(NC2=C(Cl)C(=O)N(Cc3ccccc3)C2=O)cc1 | 21.1 µM | 56.7 µM | 7.92 µM | 28.1 µM | 3.26 µM | 44.8 µM | 11.4 µM | 27.1 µM | 32.9 µM | > 100 µM | 12.9 µM | 28.6 µM | 15.7 µM | 6.23 µM | 6.36 µM | > 100 µM | 0.98 µM | 6.22 µM | 35.3 µM | > 100 µM
10 | COc1ccc(-c2cc(/C=C3\C(=O)Nc4ccc(Cl)cc43)[nH]n2)cc1 | 3.96 µM | 19.6 µM | 6.59 µM | 20 µM | 5.13 µM | 25.6 µM | 4.03 µM | 15.9 µM | 4.07 µM | 13.8 µM | 3.73 µM | 16.3 µM | 5.71 µM | 3.04 µM | 4.01 µM | 15.5 µM | 5 µM | 17.9 µM | 18.4 µM | 10.4 µM
11 | C[C@]1(CO)[C@H]2CC[C@@]34C=C[C@@](CO)(CC[C@H]3[C@]2(C)CC[C@H]1O)C4 |  | > 100 µM |  | > 100 µM |  | 48.9 µM |  | > 100 µM |  | > 100 µM |  | > 100 µM |  |  |  | > 100 µM |  | > 100 µM | > 100 µM | > 100 µM
12 | CC[C@@]1(O)C(=O)NCc2c1cc1n(c2=O)Cc2cc3c(N)cccc3nc2-1 | 10.6 µM | > 36.9 µM | 2.39 µM | > 78.7 µM | 0.301 µM | 16.6 µM | 9.99 µM | > 55.4 µM | 4.54 µM | > 86.1 µM | 0.942 µM | 15.1 µM | 1.23 µM | 1.19 µM | 4.16 µM | > 100 µM | 10.1 µM | > 100 µM | > 46.6 µM | > 34.6 µM
13 | O=C(NCCCNc1cc(-c2cn(-c3ccccc3)nc2-c2cccc(O)c2)ccn1)c1ccccc1 | 3.34 µM | 14.8 µM | 4.45 µM | 37.7 µM | 1.41 µM | 3.78 µM | 2.1 µM | 15.2 µM | 6.63 µM | 92.8 µM | 3.04 µM | 26.6 µM | 3.47 µM | 1.68 µM | 2.36 µM | 6.15 µM | 4.2 µM | 59.6 µM | > 100 µM | 4.19 µM
14 | OCC1OC(n2ccc3c(NO)ncnc32)C(O)C1O (stereo not drawn) | 0.234 µM | 1.12 µM | 0.184 µM | 1.94 µM | 0.153 µM | 0.477 µM | 0.239 µM | 1.14 µM | 0.12 µM | 5.38 µM | 0.214 µM | 1.17 µM | 0.0391 µM | 0.214 µM | 0.0895 µM | 3.23 µM | 0.088 µM | 1.17 µM | 3.17 µM | 0.638 µM
15 | N#Cc1cnc2cc(OC[C@@H](O)CO)c(NC(=O)CC3CSSC3)cc2c1Nc1ccc(OCc2cccc(F)c2)c(Cl)c1 | 0.112 µM | 0.251 µM | 0.651 µM | 1.85 µM | 0.0736 µM | 0.174 µM | 0.0888 µM | 0.198 µM | 0.567 µM | 1.27 µM | 0.614 µM | 1.51 µM | 1.1 µM | 0.589 µM | 0.216 µM | 0.87 µM | 0.288 µM | 1.11 µM | 2.87 µM | 1.47 µM
16 | CC(C)c1ccc(/C(C(=O)O)=C(\O)C(=O)O)cc1 |  | > 100 µM |  | > 100 µM |  | > 100 µM |  | > 100 µM |  | > 100 µM |  | > 100 µM |  |  |  | > 100 µM |  | > 100 µM | > 100 µM | > 100 µM
17 | C=C1C(=O)O[C@H]2[C@H]1CC/C(COC(=O)NCc1ccc(Cn3c(=O)sn(CCCCl)c3=O)cc1)=C\CC[C@@]1(C)O[C@@H]21 | 4.92 µM | 17.5 µM | 2.32 µM | 5.42 µM | 1.5 µM | 5.41 µM | 2.13 µM | 5.05 µM | 18.3 µM | 32.2 µM | 2.33 µM | 5.36 µM | 1.66 µM | 0.967 µM | 1.23 µM | 3.31 µM | 1.78 µM | 3.88 µM | 3.05 µM | 3.77 µM
18 | COc1cc(/C=C\[N+](=O)[O-])ccc1OCc1ccccc1 | 3.06 µM | 10.8 µM | 2.91 µM | 9.56 µM | 2.7 µM | 7.61 µM | 3.5 µM | 25.4 µM | 4.65 µM | 15.2 µM | 2.07 µM | 5.26 µM | 1.99 µM | 2.48 µM | 1.49 µM | 4.02 µM | 2.48 µM | 7.6 µM | 4.36 µM | 6.16 µM
